In patent US20220306603A1, “TARGETING DNA REPAIR IN TUMOR CELLS VIA INHIBITION OF ERCC1-XPF” (The Governors of the University of Alberta, priority 2019, published 2022):
Values after ≈ are worked out from the molar mass of the structure shown. “Also recorded” adds a separate entry of the source. Read-outs that look alike come from different tables or passages of the source.

Key:
[1] = Stability of the compound over time; assay type: physicochemical
[2] = target: T1, ERCC1-XPF (Homo sapiens, UniProt Q92889); experiment: Microplate fluorescence incision assay of ERCC1-XPF endonuclease activity; assay type: biochemical; details: for inhibition of ERCC1-XPF endonuclease activity (in words): compounds 10 μM each
T1 construct: His6; made in house; host or cells: E. coli BL21 (DE3)
T1 sequence (Q92889 1-916): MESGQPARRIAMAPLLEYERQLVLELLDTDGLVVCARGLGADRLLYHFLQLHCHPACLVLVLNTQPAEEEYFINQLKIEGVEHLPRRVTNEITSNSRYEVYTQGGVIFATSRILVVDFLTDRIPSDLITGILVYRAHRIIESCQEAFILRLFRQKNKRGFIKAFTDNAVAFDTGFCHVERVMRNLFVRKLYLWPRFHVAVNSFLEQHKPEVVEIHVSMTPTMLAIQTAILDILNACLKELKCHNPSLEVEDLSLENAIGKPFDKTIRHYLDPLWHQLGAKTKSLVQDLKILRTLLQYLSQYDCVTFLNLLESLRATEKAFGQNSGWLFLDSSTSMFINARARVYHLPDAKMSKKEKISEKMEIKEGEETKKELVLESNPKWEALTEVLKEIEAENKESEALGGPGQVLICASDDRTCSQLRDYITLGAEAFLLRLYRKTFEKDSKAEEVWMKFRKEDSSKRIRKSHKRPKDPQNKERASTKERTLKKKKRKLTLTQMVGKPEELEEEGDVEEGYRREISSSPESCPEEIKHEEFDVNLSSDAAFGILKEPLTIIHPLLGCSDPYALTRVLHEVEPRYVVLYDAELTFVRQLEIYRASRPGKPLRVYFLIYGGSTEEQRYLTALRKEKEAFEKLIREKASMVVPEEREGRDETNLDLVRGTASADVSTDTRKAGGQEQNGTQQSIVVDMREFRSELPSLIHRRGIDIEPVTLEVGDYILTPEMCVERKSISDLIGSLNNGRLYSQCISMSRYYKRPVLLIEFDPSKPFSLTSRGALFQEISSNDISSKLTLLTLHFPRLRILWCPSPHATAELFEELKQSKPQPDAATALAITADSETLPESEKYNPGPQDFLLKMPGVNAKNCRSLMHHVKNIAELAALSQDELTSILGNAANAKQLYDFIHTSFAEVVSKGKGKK
Text: This assay has been previously described (29), and utilizes a stem-loop substrate (composed of a 10mer-duplex stem and a 20mer-oligodT single-strand loop), labelled on the 5′-terminus with 6-FAM and 3′ with the quencher dabcyl.
Human ERCC1-XPF wild-type protein was obtained as previously described (29). Basically, the recombinant protein was expressed from a bicistronic plasmid (provided by Dr. Richard Wood, University of Texas MD Anderson Cancer Center, Smithville, Tex.) in the E. coli BL21 (DE3) strain. Since both XPF and ERCC1 contained a polyhistidine (His-6) tag, the proteins extracted from E. coli were incubated with a ProBond Nickel-Chelating Resin (Thermo Fisher Scientific). Protein eluted from the Ni affinity column was subsequently loaded into a Hi-trap heparin column (GE Healthcare). Fractions recovered from the heparin column that contained ERCC1-XPF were dialyzed, concentrated and stored at −80° C. in 10 mM HEPES pH 7.4, 2.5 mM p-mercaptoethanol, 0.01% CHAPS, 0.25 mM EDTA, 50% glycerol and 25 mM NaCl.
A previously described protocol (2,29) was followed.

[3] = target: T2, ERCC1-XPF complex (Homo sapiens, UniProt Q92889); experiment: Steady-state intrinsic tryptophan fluorescence quenching binding assay
T2 construct: His6; made in house; host or cells: E. coli BL21 (DE3)
T2 sequence (Q92889 1-916): T1 sequence (Q92889 1-916)
Method: Steady-state fluorescence spectra were measured at room temperature on a Perkin-Elmer LS-55 spectrofluorometer (Freemont, Calif.) with 5 nm spectral resolution for excitation and emission using 30-80 nM solution of purified recombinant ERCC1-XPF protein complex. […] In studying the effects of inhibitors on protein fluorescence intensities, additions to protein samples were made from inhibitors stock solutions, keeping the protein dilution below 3%.

[4] = system: HCT116 cells; experiment: Cellular repair of UV-induced cyclobutane pyrimidine dimers (immunofluorescence); assay type: cell-based, human; details: 8 J/m^2 UV-C, up to 24 h post-irradiation
Method: Protocol of Mirzayans et al. was followed with minor modifications (30). Approximately 1×10^5 HCT116 cells were seeded on each coverslip and allowed to attach overnight. Medium was then removed and cells were treated for one hour with the desired compound. The medium was removed, and cells were exposed to 8 J/m^2 UV-C radiation (G15T8 254 nm lamp, Ushio America Inc, Cypress, Calif.) followed by adding fresh medium containing the compound. Plates were incubated at 37° C. for different periods of time up to 24 hours and fixed in 50:50 methanol/1× phosphate-buffered saline (PBS) solution, followed by replacing the methanol/PBS solution with 100% methanol and incubation in −20° C. After 20 minutes, methanol was removed, and cells were treated with PBS for 5 minutes in room temperature. After fixing, cells were permeabilized in 0.5% Triton/PBS and washed with PBS, denatured in 2 N HCl, and neutralized by twice washing with 0.1 M borate buffer pH 8.5. Cells on cover slips were washed once with PBS followed by blocking with 5% non-fat dry milk/PBS for 30 minutes. Mouse anti-thymine dimer monoclonal antibody (Cat. No. MC-062, Kamiya Biomedical Company, Seattle, Wash.) was applied to the cover slips for one hour in the dark and at room temperature. Cells were then washed with PBS containing 0.1% Tween-20 and incubated with rabbit anti-mouse IgG-Alexafluor antibody (Invitrogen, Carlsbad, Calif.) followed by two washes with PBS/(0.1%)Tween-20. Cells on coverslips were then washed with PBS, rinsed with water, and mounted on slides using DAPI glycerol mounting solution. Slides were kept at 4° C. before fluorescent microscopic evaluation and measurement of fluorescence intensity with MetaXpress Version: 6.2.1.704 software (Molecular Devices, Sunnyvale, Calif.).
To test for inhibition of nucleotide excision repair, we monitored the cellular removal of UVC-induced cyclobutane pyrimidine dimers (CPDs) in HCT116 cells over a 24-hour period using an immunochemical assay.

[5] = ADME screening: solubility; assay type: physicochemical; details: Table 8
[6] = ADME screening: LogD
[7] = ADME screening: cell permeability and efflux ratio; details: for Cell permeability (Mean recovery %) (in words): Table 8; for efflux ratio: not told
[8] = Microsomal stability in vitro (human liver microsomes); details: for Microsomal stability in vitro CLint (in words): Table 8
[9] = system: HCT116 cells; experiment: Clonogenic survival assay, UV treatment; assay type: cell-based, human; details: 254 nm UV 0-10 J/m^2; compound 0.5-4 μM
Method: UV treatment: HCT116 cells (100-800 cells depending on the UV dose) were plated in triplicate in 60-mm petri dishes. The cells were incubated overnight at 37° C. in a humidified atmosphere containing 5% CO2 to allow for cell attachment. […] Medium was removed again, and cells were exposed to increasing doses (0-10 J/m^2) of UV-C radiation and then incubated for a further 10 days in the presence of inhibitor at 37° C. in a 5% CO2 atmosphere to allow for colony formation. After this period plates were stained with crystal violet and colonies were counted using a Colcount instrument (Oxford Optronix, Abingdon UK). Finally, plating efficiency and surviving fraction were calculated.

[10] = system: HCT116 cells; experiment: Cytotoxicity profile: crystal violet viability assay (and colony forming assay); assay type: cell-based, human; details: 5 μM, 3 days exposure, crystal violet
Method: Crystal violet viability assays were carried out to assess the cellular toxicity of these compounds to HCT116 cells and to choose relatively non-cytotoxic concentrations to be further utilised in sensitizing cells to UV radiation or cyclophosphamide.
The beneficial effect is especially visible at a concentration of 5.0 μM. At higher concentrations, both compounds show an equal cytotoxic effect (FIG. 15).

[11] = system: serum proteins; experiment: ADME screening: serum protein binding; assay type: in vitro ADME; details: Table 8
[12] = Hepatocyte stability in vitro; assay type: in vitro ADME; details: Table 8
[13] = system: interaction between ERCC1 and XPF; details: in vitro; cited from earlier work
[14] = system: cancer cells; details: cited from earlier work
[15] = system: five CYP450 enzymes (CYP1A2, CYP2C9, CYP2C19, CYP2D6, CYP3A4-M); experiment: ADME screening: CYP inhibition (five CYP450 enzymes); details: human
[16] = system: five CYP450 tested enzymes; experiment: as above; details: Table 8
[17] = system: HCT116 cells; experiment: Clonogenic survival assay, cyclophosphamide treatment; assay type: cell-based, human; details: cyclophosphamide 0-300 μM; compound 1-4 μM
Method: Plates were incubated for another 8 days at 37° C. in a 5% CO2 atmosphere for colony formation. After this period plates were stained with crystal violet, colonies were counted, and plating efficiency and surviving fraction were calculated.

In the case of `COc1ccc2nc3cc(Cl)ccc3c(Nc3ccc(O)c(CN4CCN(Cc5cccc(C)c5)CC4)c3)c2c1` [Compound A2, 4-((6-Chloro-2-methoxyacridin-9-yl)amino)-2-((4-(3-methylbenzyl)piperazin-1-yl)methyl)phenol], the “stability over time (in words)” value [1] is reported as “instability over time”.

With `COc1ccc2nc3cc(Cl)ccc3c(Nc3ccc(O)c(CN4CCN(C5CCCCC5)CC4)c3)c2c1` [Compound A3, 4-((6-Chloro-2-methoxyacridin-9-yl)amino)-2-((4-cyclohexylpiperazin-1-yl)methyl)phenol] the IC50 ([2]; Table 6, at least three experiments of Vo versus concentration, 30 minutes incubation, 5% DMSO, read-out: IC50 ± SD) was 380 ± 100 nM, the “inhibition of ERCC1-XPF endonuclease activity (in words)” value [2] was “marked capacity to inhibit; also recorded: potent inhibitors” and the Kd ([3]; Table 6, read-out: Kd ± SD) was 145 ± 5 nM.

For `COc1ccc2nc3cc(Cl)ccc3c(Nc3ccc(O)c(CN4CCN(c5ccc(Cl)c(Cl)c5)CC4)c3)c2c1` [Compound A5, 4-((6-Chloro-2-methoxyacridin-9-yl)amino)-2-((4-(3,4-dichlorophenyl)piperazin-1-yl)methyl)phenol], the “inhibition of ERCC1-XPF endonuclease activity (in words)” value [2] was “very limited inhibition”, the “quenching of protein fluorescence at 330 nm” value ([3]; 2 μM compound, excitation 295 nm) was 3±1% and the “inhibition of cellular removal of CPDs / thymidine dimers (in words)” value [4] was “failed to inhibit the cellular removal of CPDs”.

In the case of `COc1ccc2nc3cc(Cl)ccc3c(Nc3cc(CN4CCCC4)c(O)c(CN4CCCC4)c3)c2n1` [Compound D4, pyronaridine, reference compound], the IC50 ([2]; Table 7, at least three experiments of Vo versus concentration, read-out: IC50) is reported as 321 ± 22 nM, the “inhibition of ERCC1-XPF endonuclease activity (in words)” value [2] is reported as “potent inhibitor; also recorded: strong inhibitory effect” and the Kd ([3]; Table 7, read-out: Kd protein) is reported as 150 ± 10 nM. For the same compound, the “Solubility (in words)” value [5] was “Highly soluble”, the “LogD (rating)” value ([6]; Table 8) was “Good” and the logD ([6]; pH 7.4) was 2.31. The “Cell permeability (Mean recovery %) (in words)” value [7] was “Low (common)” and the “Microsomal stability in vitro CLint (in words)” value [8] was “Moderate”.

With `COc1ccc2nc3cc(Cl)ccc3c(Nc3ccc(O)c(CN4CCN(C)CC4)c3)c2c1` [Compound F06, 4-((6-Chloro-2-methoxyacridin-9-yl)amino)-2-((4-methylpiperazin-1-yl)methyl)phenol, reference compound] the IC50 [2] was 1860 nM, the IC50 ([2]; Table 7, at least three experiments of Vo versus concentration) was 1860 ± 250 nM and the “inhibition of ERCC1-XPF endonuclease activity (in words)” value [2] was “marked capacity to inhibit”. It also gave an IC50 ([2]; read-out: IC50 of ERCC1-XPF endonuclease activity, full-length ERCC1-XPF, 30 minutes incubation, 5% DMSO) of 1860 ± 250 nM, an IC50 ([2]; read-out: IC50 ± SD, Table 6, at least three experiments of Vo versus concentration, 30 minutes incubation, 5% DMSO) of 1860 ± 250 nM and a Kd ([3]; Table 6, read-out: Kd ± SD) of 140 ± 5 nM. The Kd ([3]; Table 7, read-out: Kd protein) was 140 ± 5 nM, the “sensitisation to UV radiation, clonogenic survival (in words)” value [9] was “modest sensitisation capacity” and the cells survived [10] was “about 35%”. For the same compound, the “Solubility (in words)” value [5] was “(partially soluble)”, the solubility ([5]; <1.56 means below lower limit of quantilation) was 8.13 µM (≈ 3.76 µg/mL) and the “Serum protein binding (% bound)” value [11] was “(99.9) % bound”. For the same compound, the “Serum protein binding (in words)” value [11] was “Strong binding”, the “Hepatocyte stability in vitro CLint (in words)” value [12] was “(medium clearance)” and the CLint scaled ([12]; hepatocytes) was less than 17.8 mL/min/kg. For the same compound, the “effect on the interaction between ERCC1 and XPF (in words)” value [13] was “repressed the interaction between ERCC1 and XPF in vitro”, the “sensitization of cancer cells to MMC and cisplatin (in words)” value [14] was “sensitized cancer cells to MMC and cisplatin” and the “LogD (rating)” value ([6]; Table 8) was “Good”. The “LogD (remark in the LogD row)” value ([6]; Table 8) was “(partially soluble)”, the logD ([6]; Table 8) was 3.86 and the “log D” value ([6]; pH 7.4) was 3.86. The “Cell permeability (Mean recovery %) (in words)” value [7] was “Low (common)”, the efflux ratio [7] was greater than 2 and the efflux ratio ([7]; efflux ratio) was 11.2. For the same compound, the IC50 [15] was no less than 1000 nM, the “CVP inhibition (5 enzyme) (rating)” value [16] was “Moderate” and the “Microsomal stability in vitro CLint (in words)” value [8] was “high”. It also gave a CLint scaled ([8]; human, liver microsomes) of 53.7 mL/min/kg.

For `CN1CCN(Cc2cc(N)ccc2O)CC1` [Gen B4], the “inhibition of ERCC1-XPF endonuclease activity (in words)” value [2] was “complete loss of inhibition”.

With `CN1CCN(Cc2cc(Nc3c4ccc(Cl)cc4nc4ccc(O)cc34)ccc2O)CC1` [Gen B5] the “inhibition of ERCC1-XPF endonuclease activity (in words)” value [2] was “marked capacity to inhibit”.

With `COc1ccc2nc3cc(Cl)ccc3c(Nc3ccc(O)c(CN4CCN(CCNc5ccccc5)CC4)c3)c2c1` [Gen C-5, 4-((6-Chloro-2-methoxyacridin-9-yl)amino)-2-((4-(2-(phenylamino)ethyl)piperazin-1-yl)methyl)-phenol] the “sensitisation to cyclophosphamide, clonogenic survival (in words)” value [17] was “no significant sensitisation effect”.
